Laboratory results from patent publication US11564922B2, “Methods of treating crohn's disease and ulcerative colitis” (AbbVie Inc., priority 2017, dated 2023).
“Also recorded” adds a separate entry of the source.

Columns and labels:
[1] = Solid state forms of upadacitinib: hygroscopicity; format: physicochemical
[2] = Solid state forms of upadacitinib: chemical and physical stability
[3] = Solid state forms of upadacitinib: solubility and bioavailability; format: physicochemical
[4] = system: subjects with moderately to severely active ulcerative colitis; assay: Example 20: Phase 3 maintenance study in ulcerative colitis (Study M14-234 Substudy 3), upadacitinib 15 mg or 30 mg QD vs placebo, 52 weeks; format: in vivo, human; conditions: for Clinical remission per Adapted Mayo Score at Week 52, % / Clinical remission at Week 52, Treatment Difference vs. PBO / Discontinued from Study Drug, Adverse events (primary reason), % / Discontinued from Study Drug, Lack of efficacy (primary reason), %: ITTA; for Clinical remission per Adapted Mayo Score at Week 52, % / Clinical remission at Week 52, Treatment Difference vs. PBO: NRI-C; for Corticosteroid-free remission, % of patients: patients in remission at completion of the 8-week induction studies; for Clinical remission (per Adapted Mayo Score) / Endoscopic improvement / Histologic-endoscopic mucosal improvement / Corticosteroid-free clinical remission: Week 52; for Corticosteroid-free clinical remission: among patients with clinical remission after 8 weeks of induction
[5] = system: subjects with moderately to severely active ulcerative colitis; assay: Example 19: Phase 3 induction study in ulcerative colitis (Study M14-675), upadacitinib 45 mg QD vs placebo
Description: The primary objective of this study is to evaluate the efficacy and safety of upadacitinib 45 mg once daily (QD) compared to placebo in inducing clinical remission (per Adapted Mayo score) in subjects with moderately to severely active ulcerative colitis (UC).
The secondary objectives of the study are to evaluate the efficacy of upadacitinib 45 mg QD comparing with placebo in ranked secondary endpoints of achieving endoscopic improvement, endoscopic remission, clinical response per Adapted Mayo Score, clinical response per Partial Adapted Mayo score, histologic-endoscopic mucosal improvement, no bowel urgency, no abdominal pain, histologic improvement, mucosal healing, and change in IBDQ total score and FACIT-F score.
Males and females between 18 and 75 years of age with a diagnosis of moderately to severely active UC. […] The study will consist of a mixed population: biologic-inadequate responders (bio-IR) and non-biologic-inadequate responders (non-bio-IR).
The randomization will be stratified by bio-IR status (bio-IR vs non-bio-IR), corticosteroid use (yes or no) and Adapted Mayo score (≤7 or >7) at Baseline. Within bio-IR, the randomization will be further stratified by number of prior biologic treatments (≤1 or >1). Within non-bio-IR, the randomization will be further stratified by previous biologic use (yes or no).
The blind from Part 1 will not be broken for the duration of the study as subjects will be assessed as clinical non-responders at the 8 Week Visit of Part 1 and will be moved to Part 2 for further treatment in the study without identifying their initial treatment assignment. All eligible subjects entering Part 2 will receive open-label treatment with upadacitinib 45 mg QD for 8 additional weeks (until Week 16). At Week 16, an endoscopy will be performed to evaluate the treatment effect. A flexible rectosigmoidoscopy is recommended. However, the use of flexible sigmoidoscopy or colonoscopy is at the investigators' discretion based on local practice.
For the assessment of the clinical endpoints, the stool frequency and the rectal bleeding subscore will be calculated as an average of the entries recorded into the subject's diary from the most recent consecutive 3-day period prior to each study visit. If diary entries from the 3 consecutive days prior to the visit are not available, the 3 most recent consecutive days in the last 10 days will be utilized. If data is not available for 3 consecutive days, the average of the entries from the most recent 3 non-consecutive days in the last 10 days will be utilized. Clinical endpoints of abdominal pain and bowel urgency from subject diaries will be measured at the same time period as the stool frequency and rectal bleeding subscores. Proportion of subjects who report no abdominal pain and proportion of subjects who report no bowel urgency in the 3 days will be estimated.
Subjects will undergo a full colonoscopy with biopsy for histologic assessment during Screening with local investigator assessment for Mayo endoscopic subscore for initial eligibility assessment, confirmed by a central reader prior to randomization. At end of treatment (Week 8 in Part 1) a full colonoscopy or flexible sigmoidoscopy, depending on the extent of disease at Screening, will be performed.
The endoscopic subscore result from the central reader during the screening period will be used to evaluate the eligibility of a subject to enroll in the study and for all efficacy assessments at Week 8 of Part 1.
Male or female between 16 and 75 years of age at Baseline.

[6] = Pharmacokinetic exposure of once-daily formulation versus immediate-release formulation (AUC, Cmin, Cmax); format: in vivo, human; conditions: 15 mg QD and 30 mg QD once-daily formulation versus 6 mg BID and 12 mg BID immediate-release formulation, respectively
Description: This study evaluated two maintenance doses of upadacitinib at 15 mg and 30 mg QD. […] In addition, all the currently available PK, pharmacodynamic, safety, and efficacy data from upadacitinib studies were used to support the selection of these doses. […] Following induction with 45 mg QD, doses of 15 mg QD and 30 mg QD are expected to maintain clinical and endoscopic response while having better long-term safety profile compared to higher doses. Doses of 15 mg QD and 30 mg QD for up to 240 weeks were expected to be efficacious with an acceptable safety profile.

[7] = system: subjects with moderately to severely active CD; assay: Study M13-740: Phase 2 induction study, immediate-release upadacitinib vs placebo; format: in vivo, human; conditions: induction phase of Study M13-740, immediate-release formulation, doses of 6 mg BID and higher

SMILES: CC[C@@H]1CN(C(=O)NCC(F)(F)F)C[C@@H]1c1cnc2cnc3[nH]ccc3n12 [Amorphous Freebase]
- Hygroscopicity [1]: hygroscopic
- Water content (hygroscopicity) ([1]; 25° C./90% relative humidity): ≤ 12 % by weight
- Chemical stability [2]: acceptable chemical stability
- Stability to light and peroxide [2]: acceptable stability to light and peroxide
- Solubility [3]: greater solubility

SMILES: CC[C@@H]1CN(C(=O)NCC(F)(F)F)C[C@@H]1c1cnc2cnc3[nH]ccc3n12 [Freebase Anhydrate Form D]
- Hygroscopicity [1]: reversibly hygroscopic
- Water content (hygroscopicity) ([1]; 90% RH at 25° C.): up to 1.8%
- Physical stability [2]: metastable relative to Freebase Hydrate Form C

SMILES: CC[C@@H]1CN(C(=O)NCC(F)(F)F)C[C@@H]1c1cnc2cnc3[nH]ccc3n12 [Freebase Hydrate Form B]
- Physical stability [2]: not physically stable; also recorded: not stable after isolation at ambient conditions

SMILES: CC[C@@H]1CN(C(=O)NCC(F)(F)F)C[C@@H]1c1cnc2cnc3[nH]ccc3n12.CC[C@@H]1CN(C(=O)NCC(F)(F)F)C[C@@H]1c1cnc2cnc3[nH]ccc3n12.O [Freebase Hydrate Form C]
- Hygroscopicity [1]: low hygroscopicity
- Chemical stability [2]: good chemical stability

SMILES: CC[C@@H]1CN(C(=O)NCC(F)(F)F)C[C@@H]1c1cnc2cnc3[nH]ccc3n12 [UPA, upadacitinib]
- Clinical remission per Adapted Mayo Score at Week 52, % ([4]; Bio-IR, UPA 15 mg QD N = 71): 40.5%
- Clinical remission at Week 52, Treatment Difference vs. PBO ([4]; Bio-IR, UPA 15 mg): 33.0%
- Clinical remission per Adapted Mayo Score at Week 52, % ([4]; Bio-IR, UPA 30 mg QD N = 73): 49.1%
- Clinical remission at Week 52, Treatment Difference vs. PBO ([4]; Bio-IR, UPA 30 mg): 41.6%
- Clinical remission per Adapted Mayo Score at Week 52, % ([4]; Non-Bio-IR, UPA 15 mg QD N = 77): 43.9%
- Clinical remission at Week 52, Treatment Difference vs. PBO ([4]; Non-Bio-IR, UPA 15 mg): 26.3%
- Clinical remission per Adapted Mayo Score at Week 52, % ([4]; Non-Bio-IR, UPA 30 mg QD N = 81): 54.0%
- Clinical remission at Week 52, Treatment Difference vs. PBO ([4]; Non-Bio-IR, UPA 30 mg): 36.3%
- Discontinued from Study Drug, Adverse events (primary reason), % ([4]; UPA 15 mg QD (N = 148)): (2.7) %
- Discontinued from Study Drug, Lack of efficacy (primary reason), % ([4]; UPA 15 mg QD (N = 148)): (23.6) %
- Discontinued from Study Drug, Adverse events (primary reason), % ([4]; UPA 30 mg QD (N = 154)): (5.2) %
- Discontinued from Study Drug, Lack of efficacy (primary reason), % ([4]; UPA 30 mg QD (N = 154)): (7.8) %

SMILES: CC[C@@H]1CN(C(=O)NCC(F)(F)F)C[C@@H]1c1cnc2cnc3[nH]ccc3n12 [upadacitinib, (3S,4R)-3-ethyl-4-(3H-imidazo[1,2-a]pyrrolo[2,3-e]pyrazin-8-yl)-N-(2,2,2-trifluoroethyl)pyrrolidine-1-carboxamide]
- Clinical remission per Adapted Mayo score at Week 52, proportion of subjects ([4]; 15 mg QD maintenance after 8 weeks 45 mg QD induction): 42.3%
- Safety and tolerability ([4]; 15 mg and 30 mg QD, 52 weeks): generally safe and well tolerated
- Corticosteroid-free remission, % of patients ([4]; 15 mg cohort): 57%
- Clinical remission (per Adapted Mayo Score) ([4]; 15 mg once daily (n = 148)): 42%
- Endoscopic improvement ([4]; 15 mg once daily (n = 148)): 49%
- Histologic-endoscopic mucosal improvement ([4]; 15 mg once daily (n = 148)): 35%
- Corticosteroid-free clinical remission ([4]; 15 mg once daily, N = 47): 57%
- Clinical remission per Adapted Mayo score at Week 52, proportion of subjects ([4]; 30 mg QD maintenance after 8 weeks 45 mg QD induction): 51.7%
- Corticosteroid-free remission, % of patients ([4]; 30 mg cohort): 68%
- Clinical remission (per Adapted Mayo Score) ([4]; 30 mg once daily (n = 154)): 52%
- Endoscopic improvement ([4]; 30 mg once daily (n = 154)): 62%
- Histologic-endoscopic mucosal improvement ([4]; 30 mg once daily (n = 154)): 49%
- Corticosteroid-free clinical remission ([4]; 30 mg once daily, N = 58): 68%
- Clinical response per Partial Adapted Mayo Score and clinical remission rate per Partial Mayo Score over time ([4]; both upadacitinib groups (15 mg, 30 mg)): maintained over time until Week 52
- Upadacitinib pharmacokinetics, induction vs maintenance periods ([4]; subjects with UC): consistent between the induction and maintenance periods
- Rates of severe adverse events and AEs leading to study drug discontinuation compared to placebo ([5]; 45 mg): lower
- Onset of clinical response per Partial Adapted Mayo Score ([5]; 45 mg QD): as early as Week 2
- Patients with clinical response at week 8 ([5]; 45 mg QD): approximately 75%
- Rates of neutropenia, lymphopenia, hepatic disorder, and CPK elevation compared to placebo ([5]; 45 mg QD): higher
- Tolerability of eight-week induction treatment ([5]; 45 mg QD): well tolerated
- Week 8 non-responding patients with clinical response by 16 weeks ([5]; 45 mg QD, additional 8 weeks): approximately 50%
- Deaths ([5]; 45 mg QD, 8 weeks): No deaths were reported
- Primary and ranked secondary endpoints vs placebo ([5]; 45 mg QD, 8 weeks, all p<0.001): met primary and all ranked secondary endpoints
- Proportion of subjects achieving clinical remission per Adapted Mayo score at Week 8 ([5]; 45 mg QD, SFS ≤1 and not greater than baseline, RBS 0, endoscopic subscore ≤1): 33.5%
- daily area under the concentration-time curve (AUC) [6]: equivalent
- minimum plasma concentration (Cmin) and maximum plasma concentration (Cmax) [6]: comparable
- clinical and endoscopic efficacy compared to placebo [7]: demonstrated the clinical and endoscopic efficacy
